Assay [1] has as its system VEGF-stimulated HUVEC proliferation (Human Umbilical Vein Endothelial cells). The assay can be described thus: HUVEC Proliferation Assay. The class given is cell-based. Conditions: VEGF 50 ng/mL, 72 h, CyQuant fluorescent dye, read-out: inhibited VEGF-stimulated HUVEC proliferation at a level. How it is done:
Human Umbilical Vein Endothelial cells are purchased from Clonetics, Inc., as cryopreserved cells harvested from a pool of donors. These cells, at passage 1, are thawed and expanded in EBM-2 complete medium, until passage 2 or 3. The cells are trypsinized, washed in DMEM+10% FBS+antibiotics, and spun at 1000 rpm for 10 min. Prior to centrifugation of the cells, a small amount is collected for a cell count. After centrifugation, the medium is discarded, and the cells are resuspended in the appropriate volume of DMEM+10% FBS+antibiotics to achieve a concentration of 3×10^5 cells/mL. Another cell count is performed to confirm the cell concentration. The cells are diluted to 3×10^4 cells/mL in DMEM+10% FBS+antibiotics, and 100 μL of cells are added to a 96-well plate. The cells are incubated at 37° C. for 22 h.
Prior to the completion of the incubation period, compound dilutions are prepared. Five-point, five-fold serial dilutions are prepared in DMSO, at concentrations 400-fold greater than the final concentrations desired. 2.5 μL of each compound dilution are diluted further in a total of 1 mL DMEM+10% FBS+antibiotics (400× dilution). Medium containing 0.25% DMSO is also prepared for the 0 μM compound sample. At the 22 h time point, the medium is removed from the cells, and 100 μL of each compound dilution is added. The cells are incubated at 37° C. for 2-3 h.
During the compound pre-incubation period, the growth factors are diluted to the appropriate concentrations. Solutions of DMEM+10% FBS+antibiotics, containing either VEGF or bFGF at the following concentrations: 50, 10, 2, 0.4, 0.08, and 0 ng/mL are prepared. For the compound-treated cells, solutions of VEGF at 550 ng/mL or bFGF at 220 ng/mL for 50 ng/mL or 20 ng/mL final concentrations, respectively, are prepared since 10 μL of each will be added to the cells (110 μL final volume). At the appropriate time after adding the compounds, the growth factors are added. VEGF is added to one set of plates, while bFGF is added to another set of plates. For the growth factor control curves, the media on wells B4-G6 of plates 1 and 2 are replaced with media containing VEGF or bFGF at the varying concentrations (50-0 ng/mL). The cells are incubated at 37° C. for an additional 72 h.
At the completion of the 72 h incubation period, the medium is removed, and the cells are washed twice with PBS. After the second wash with PBS, the plates are tapped gently to remove excess PBS, and the cells are placed at −70° C. for at least 30 min. The cells are thawed and analyzed using the CyQuant fluorescent dye (Molecular Probes C-7026), following the manufacturer's recommendations. The plates are read on a Victor/Wallac 1420 workstation at 485 nm/530 nm (excitation/emission). Raw data are collected and analyzed using a 4-parameter fit equation in XLFit. IC50 values are then determined.

Another assay concerns the target T1, CYP 2D6 (Homo sapiens, UniProt P10635).
T1 construct: followed by 555.6 ml of 20 mg/mL HLM (BD Gentest); tissue BD Gentest; host or cells: human liver microsomes
The assay can be described thus: Human Liver Microsome CYP 2D6 Inhibition. The class given is in vitro ADME. The conditions noted are these: human liver microsomes, bufuralol substrate; read-out: inhibited CYP2D6 microsomes, IC50. The protocol: Determining the IC-50 for Human Liver Microsome CYP 2D6 Inhibition
Postassium Phosphate Buffer pH 7.4 (39.333 mL) is chilled in an ice bath and added to a 50 ml plastic tube. A 3.2 mM bufuralol solution is prepared. 111.1 ul of 3.2 mM bufuralol is added to the buffer followed by 555.6 ml of 20 mg/mL HLM (BD Gentest). The incubation mixture was gently inverted and equilibrated at 37° C. for 5 min. A stock inhibitor solution is prepared, such as in DMSO. Incubation mixture (801 ul) is added into 96-well, 1.2 mL plastic tubes. Inhibitor is added at various concentrations (e.g. 30 μM to […]). The tubes are sealed and mix by inverting 5 times gently. The incubation mixture containing inhibitor (270 μL) is added by aliquot into wells of a 1 mL, 96-well block (duplicate). The block is placed into a 37° C. water bath and equilibrated for 3 minutes. 10 mM NADPH (30 ml) is added to all samples. After 5 min, the reactions are stopped by adding 300 ml of Quench Solution [0.1% TFA in CH3CN]. 1′-OH-bufuralol-d9 (750 ng/mL 30 μL) is added, the block is gently vortexed then centrifuged at 3000 rpm for 10 min at 4° C. 50 μL of supernatant from all samples is added by aliquot into a shorter, 96-well block. The aliquoted supernatants are pooled with other assay(s) and HPLC Grade Water (50 μL) is added to all samples. After covering and shaking by vortex gently for 2 minutes, the solutions were analyzed by LC-MS (API 3000, 5% MeOH w/0.1% AcOH to 95% MeOH w/0.1% AcOH). 500 nM quinidine is used as a control.
(In general: Liver microsomes are a subcellular fraction often used to study metabolism.)

The target of another assay is T2, CYP 3A4 (Homo sapiens, UniProt P08684).
T2 construct: followed by 222.2 ml of 20 mg/mL HLM (BD Gentest); tissue BD Gentest; host or cells: human liver microsomes
T2 sequence (P08684 whole entry): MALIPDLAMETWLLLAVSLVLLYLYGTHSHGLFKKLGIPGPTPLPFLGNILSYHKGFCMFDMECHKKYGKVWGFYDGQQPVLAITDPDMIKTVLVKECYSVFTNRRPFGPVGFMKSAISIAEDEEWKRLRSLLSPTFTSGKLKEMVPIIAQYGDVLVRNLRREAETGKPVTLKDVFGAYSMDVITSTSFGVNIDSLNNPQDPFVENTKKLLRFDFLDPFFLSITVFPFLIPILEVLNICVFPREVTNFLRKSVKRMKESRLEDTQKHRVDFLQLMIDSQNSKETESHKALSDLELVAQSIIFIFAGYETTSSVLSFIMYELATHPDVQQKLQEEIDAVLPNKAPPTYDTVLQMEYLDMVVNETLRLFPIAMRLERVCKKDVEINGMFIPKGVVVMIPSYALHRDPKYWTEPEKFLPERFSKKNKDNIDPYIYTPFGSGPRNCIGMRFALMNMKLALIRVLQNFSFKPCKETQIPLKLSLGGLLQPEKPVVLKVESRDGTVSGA
Description: Human Liver Microsome CYP 3A4 Inhibition. In kind it is in vitro ADME. Conditions: human liver microsomes, midazolam substrate; read-out: inhibited CYP3A4 microsomes, IC50. How it is done:
Determining the IC-50 for Human Liver Microsome CYP 3A4 Inhibition
Postassium Phosphate Buffer pH 7.4 (39.667 mL) is chilled in an ice bath and added to a 50 ml plastic tube. A 2 mM midazolam solution is prepared. 111.1 ul of 2 mM midazolam is added to the buffer followed by 222.2 ml of 20 mg/mL HLM (BD Gentest). The incubation mixture was gently inverted and equilibrated at 37° C. for 5 min. A stock inhibitor solution is prepared, such as in DMSO. Incubation mixture (801 ul) is added into 96-well, 1.2 mL plastic tubes. Inhibitor is added at various concentrations (e.g. 30 uM to 120 nM). The tubes are sealed and mix by inverting 5 times gently. The incubation mixture containing inhibitor (270 uL) is added by aliquot into wells of a 1 mL, 96-well block (duplicate). The block is placed into a 37° C. water bath and equilibrated for 3 min. 10 mM NADPH (30 ml) is added to all samples. After 5 minutes, the reactions are stopped by adding 300 ml of Quench Solution [0.1% TFA in CH3CN]. 1′-OH-Midazolam-d313C (2 mg/mL 30 uL) is added, the block is gently vortexed then centrifuged at 3000 rpm for 10 minutes at 4° C. 50 μL of supernatant from all samples is added by aliquot into a shorter, 96-well block. The aliquoted supernatants are pooled with other assay(s) and HPLC Grade Water (50 ul) is added to all samples. After covering and shaking by vortex gently for 2 minutes, the solutions were analyzed by LC-MS (API 3000,5% MeOH w/0.1% AcOH to 95% MeOH w/0.1% AcOH). 37 nM ketoconazole is used as a control.

pIC50: −log10 of the molar value.

T1 sequence (P10635 whole entry): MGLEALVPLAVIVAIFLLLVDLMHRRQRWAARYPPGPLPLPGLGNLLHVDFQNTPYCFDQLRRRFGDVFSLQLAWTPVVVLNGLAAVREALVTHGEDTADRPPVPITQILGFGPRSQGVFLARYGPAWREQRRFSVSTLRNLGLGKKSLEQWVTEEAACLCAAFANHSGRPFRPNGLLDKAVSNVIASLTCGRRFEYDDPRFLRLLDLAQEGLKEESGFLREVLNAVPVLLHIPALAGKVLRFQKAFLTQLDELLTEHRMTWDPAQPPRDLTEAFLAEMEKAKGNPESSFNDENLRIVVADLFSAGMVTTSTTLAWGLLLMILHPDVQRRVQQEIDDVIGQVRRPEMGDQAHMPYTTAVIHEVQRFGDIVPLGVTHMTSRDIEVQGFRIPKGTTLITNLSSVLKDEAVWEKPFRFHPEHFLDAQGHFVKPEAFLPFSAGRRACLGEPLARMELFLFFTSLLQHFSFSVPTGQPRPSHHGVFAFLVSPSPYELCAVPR

On to `CC(=O)N1CC(C)(C)c2ccc(NC(=O)c3cc(F)cnc3NCc3ccnc4[nH]ccc34)cc21` [Example 80, N-(1-acetyl-3,3-dimethyl-2,3-dihydro-1H-indol-6-yl)-5-fluoro-2-((1H-pyrrolo[2,3-b]pyridin-4-ylmethyl)amino)-3-pyridinecarboxamide], for which the pIC50 in assay [1] was more than 6.30; at CYP 2D6, less than 4.70.
Turning to `O=C(Nc1ccc(C(F)(F)F)cc1)c1cc(F)cnc1NCc1ccnc2[nH]ccc12` [Example 78, 5-fluoro-2-((1H-pyrrolo[2,3-b]pyridin-4-ylmethyl)amino)-N-(4-(trifluoromethyl)phenyl)-3-pyridinecarboxamide], the pIC50 at CYP 3A4 was less than 4.70.
Take `CC1(C)CN(C(=O)C2CCCO2)Cc2cc(NC(=O)c3cccnc3NCc3ccnc4[nH]ccc34)ccc21` (single isomer, unassigned) [Example 14, N-{4,4-Dimethyl-2-[(2R*)-tetrahydrofuran-2-ylcarbonyl]-1,2,3,4-tetrahydroisoquinolin-7-yl}-2-[(1H-pyrrolo[2,3-b]pyridin-4-ylmethyl)amino]nicotinamide]: the results for the pIC50 (in assay [1]; at CYP 2D6) were more than 6.30 and less than 4.70, respectively.
On to `CC1(C)CCNc2cc(NC(=O)c3cccnc3NCc3ccnc4c3CCN4)ccc21` [Example 31, 2-[(2,3-Dihydro-1H-pyrrolo[2,3-b]pyridin-4-ylmethyl)amino]-N-(4,4-dimethyl-1,2,3,4-tetrahydroquinolin-7-yl)nicotinamide], for which the pIC50 in assay [1] is more than 6.30; on CYP 2D6, less than 4.70.
For the molecule `Cc1nc2cc(NC(=O)c3cccnc3NCc3ccnc4[nH]ncc34)ccc2s1` [Example 70, N-(2-Methyl-1,3-benzothiazol-5-yl)-2-((1H-pyrazolo[3,4-b]pyridin-4-ylmethyl)amino)-3-pyridinecarboxamide], the pIC50 is more than 6.30 in assay [1] and less than 4.70 at CYP 2D6.
Consider `[2H]C1([2H])CC(C)(C)c2ccc(NC(=O)c3cccnc3NCc3ccnc4[nH]ccc34)cc2N1` [Example 69, N-(2,2-Dideutero-4,4-dimethyl-1,2,3,4-tetrahydro-quinolin-7-yl)-2-[(1H-pyrrolo[2,3-b]pyridin-4-ylmethyl)-amino]-nicotinamide], for which the pIC50 in assay [1] was more than 6.30; on CYP 2D6, less than 4.70.
The like results for `CC1(C)CCNc2cc(NC(=O)c3cc(F)cnc3NCc3ccnc4[nH]ccc34)ccc21` [Example 82, N-(4,4-dimethyl-1,2,3,4-tetrahydro-7-quinolinyl)-5-fluoro-2-((1H-pyrrolo[2,3-b]pyridin-4-ylmethyl)amino)-3-pyridinecarboxamide] were, in that order, more than 6.30 and less than 4.70.
Consider `CC1(C)CC(=O)Nc2cc(NC(=O)c3cccnc3NCc3ccnc4[nH]ccc34)ccc21` [Example 12, N-(4,4-Dimethyl-2-oxo-1,2,3,4-tetrahydroquinolin-7-yl)-2-[(1H-pyrrolo[2,3-b]pyridin-4-ylmethyl)amino]nicotinamide], for which the figures for the pIC50 (in assay [1]; on CYP 2D6) were more than 6.30 and less than 4.70, respectively.
As for `CC(C)Oc1ccc(NC(=O)c2cc(F)cnc2NCc2ccnc3[nH]ccc23)cc1` [Example 95, 5-fluoro-N-(4-((1-methylethyl)oxy)phenyl)-2-((1H-pyrrolo[2,3-b]pyridin-4-ylmethyl)amino)-3-pyridinecarboxamide], at CYP 3A4, the pIC50 was less than 4.70.
Consider `CC(=O)N1Cc2cc(NC(=O)c3cccnc3NCc3ccnc4[nH]ccc34)ccc2C(C)(C)C1` [Example 13, N-(2-Acetyl-4,4-dimethyl-1,2,3,4-tetrahydroisoquinolin-7-yl)-2-[(1H-pyrrolo[2,3-b]pyridin-4-ylmethyl)amino]nicotinamide], for which the pIC50 in assay [1] was more than 6.30; at CYP 2D6 it was less than 4.70.
For `CC(=O)N1CC2(CC2)c2ccc(NC(=O)c3cccnc3NCc3ccnc4[nH]ccc34)cc21` [Example 7], the pIC50 was more than 6.30 in assay [1] and less than 4.70 on CYP 2D6.
The like results for `CC1(C)CN(C(=O)CN)c2cc(NC(=O)c3cccnc3NCc3ccnc4[nH]ccc34)ccc21` [Example 21, N-(1-Glycyl-3,3-dimethyl-2,3-dihydro-1H-indol-6-yl)-2-[(1H-pyrrolo[2,3-b]pyridin-4-ylmethyl)amino]nicotinamide] were, in that order, more than 6.30 and less than 4.70.
The corresponding values for `CC1(C)CNCc2cc(NC(=O)c3cccnc3NCc3c[nH]c4ncccc34)ccc21` [Example 38, N-(4,4-Dimethyl-1,2,3,4-tetrahydroisoquinolin-7-yl)-2-[(1H-pyrrolo[2,3-b]pyridin-3-ylmethyl)amino]nicotinamide] are more than 6.30 and less than 4.70.
The like results for `CC1(C)CCNc2cc(NC(=O)c3cccnc3NCc3c[nH]c4ncccc34)ccc21` [Example 40, N-(4,4-Dimethyl-1,2,3,4-tetrahydro-quinolin-7-yl)-2-[(1H-pyrrolo[2,3-b]pyridin-3-ylmethyl)-amino]-nicotinamide] were, in that order, more than 6.30 and less than 4.70.
Consider `CC(=O)N1CCC(C)(C)c2ccc(NC(=O)c3cccnc3NCc3ccnc4[nH]ccc34)cc21` [Example 52, N-(1-Acetyl-4,4-dimethyl-1,2,3,4-tetrahydro-quinolin-7-yl)-2-[(1H-pyrrolo[2,3-b]pyridin-4-ylmethyl)-amino]-nicotinamide], for which the pIC50 in assay [1] was more than 6.30; on CYP 2D6 it was less than 4.70.
